The term pest or weed control denotes how far the test organism was held down. Lower therefore signals a weak effect.

Here are results for 43 molecules from US9756858B2, “Insecticides” (Syngenta Participations AG, priority 2011, dated 2017).

Holding throughout (type): in vivo
The subject of assay [1] is Myzus persicae (green peach aphid). Description: Activity against Myzus persicae (mixed population, feeding/residual contact, preventive). To be noted: foliar, 144 h, sunflower leaf discs, 6 days incubation. As for the experimental part:
Example B4: Activity Against Myzus Persicae (Green Peach Aphid) (mixed population, feeding/residual contact activity, preventive) Sunflower leaf discs were placed on agar in a 24-well microtiter plate and sprayed with test solutions. After drying, the leaf discs were infested with an aphid population of mixed ages. After an incubation period of 6 days, samples were checked for mortality and special effects (e.g. phytotoxicity).

Assay [2] has the same test system. The assay is described as follows: Activity against Myzus persicae (mixed population, systemic/feeding, curative). To be noted: 144 h, roots of pea seedlings in test solution, 6 days. An excerpt: Example B5: Activity Against Myzus persicae (Green Peach Aphid) (mixed population, systemic/feeding activity, curative) Roots of pea seedlings, infested with an aphid population of mixed ages, were placed directly in the test solutions. 6 days after introduction, samples were checked for mortality and special effects on the plant.

The subject of assay [3] is Tetranychus urticae (two-spotted spider mite). Description: Activity against Tetranychus urticae (mixed population, feeding/residual contact, preventive). The conditions noted are these: foliar, 192 h, bean leaf discs, 8 days. From the text:
Example B7: Activity Against Tetranychus urticae (Two-Spotted Spider Mite) (mixed population, feeding/residual contact activity, preventive) Bean leaf discs on agar in 24-well microtiter plates are sprayed with test solutions. After drying, the leaf discs are infested with mite populations of mixed ages. 8 days later, discs are checked for egg mortality, larval mortality, and adult mortality.

A further assay relates to Aphis craccivora. Description: Activity against Aphis craccivora (mixed population, contact/feeding), comparison with state of the art. To be noted: for Death rate (%) after 5 days: pea seedlings, spray. As for the experimental part: Comparison of the Insecticidal Activity of Compounds According to the Invention with the Structurally Closest Compound from the State of the Art (Compound No. 39 Described on Page 66 of WO2009/149858): Example B8: Activity Against Aphis craccivora (mixed population, contact/feeding) Pea seedlings, infested with an aphid population of mixed ages, were treated with diluted test solutions in a spray chamber. […]

Assay [4] deals with Plutella xylostella (diamond back moth). Description: Plutella xylostella (larvicide, feeding/residual contact, preventive). The conditions noted are these: 200 ppm; artificial diet, L2 larvae, 5 days incubation. As for the experimental part:
Example B3: Plutella xylostella (Diamond Back Moth) (larvicide, feeding/residual contact activity, preventive) 24-well microtiter plate (MTP) with artificial diet was treated with test solutions by pipetting. After drying, the MTP's were infested with larvae (L2) (10-15 per well). After an incubation period of 5 days, samples were checked for larval mortality, antifeedant and growth regulation.

Assay [5] concerns Spodoptera littoralis (Egyptian cotton leafworm). The assay is described as follows: Activity against Spodoptera littoralis (larvicide, feeding/residual contact, preventive). To be noted: 200 ppm; cotton leaf discs, L1 larvae, 3 days after treatment. From the text: Example B1: Activity Against Spodoptera littoralis (Egyptian Cotton Leafworm) (larvicide, feeding/residual contact activity, preventive) Cotton leaf discs were placed on agar in a 24-well microtiter plate and sprayed with test solutions. After drying, the leaf discs were infested with 5 L1 larvae. The samples were checked for mortality, repellent effect, feeding behaviour, and growth regulation 3 days after treatment.

Take `O=C(NC1(C2CC2)CC1)c1sc(-c2cccnc2)nc1Cl` [Compound 1.119]: in assay [1], the pest or weed control at 200 ppm is greater than 80%.
`O=C(NCCC1CSC1)c1sc(-c2cccnc2)nc1Cl` [Compound 1.148] had a pest or weed control at 200 ppm in assay [1] greater than 80%. In assay [2], this molecule had a pest or weed control at 24 ppm greater than 80%.
Molecule `Cc1cc(O)nc(NC(=O)c2sc(-c3cccnc3)nc2Cl)n1` [Compound 1.072] yielded a pest or weed control at 200 ppm in assay [1] greater than 80%.
In assay [1], `Clc1cccc(-c2sc(-c3cccnc3)nc2Cl)n1` [Compound 1.011] displayed a pest or weed control at 200 ppm greater than 80%.
Consider `O=C(c1sc(-c2cccnc2)nc1Cl)N1CCC[C@H]1COc1c(Cl)cc(Cl)cc1Cl` [Compound 1.096], for which, in assay [3], the pest or weed control at 200 ppm is greater than 80%.
`CC1(NC(=O)c2sc(-c3cccnc3)nc2Cl)CSC1` [Compound 1.143]: the pest or weed control at 24 ppm in assay [2] was greater than 80%.
For `Cc1nc(-c2cccnc2)sc1C(=O)NCC(F)(F)F` [Comp. 39, reference compound], the “Death rate (%) after 5 days” value in the assay with Aphis craccivora (3 ppm) is reported as 35%; with Aphis craccivora (12.5 ppm), 85%; in the assay with Aphis craccivora (25 ppm) it was 99%; with Aphis craccivora (50 ppm) it was 99%.
For the molecule `O=C(NC1CON(CC(F)(F)F)C1=O)c1sc(-c2cccnc2)nc1Cl` (centres unmarked) [Compound 1.095], the pest or weed control at 200 ppm in assay [1] is greater than 80%. The molecule also displayed a pest or weed control at 24 ppm in assay [2] greater than 80%.
In turn, `CSCCNC(=O)c1sc(-c2cccnc2)nc1Cl` [Compound 1.146] displayed a pest or weed control at 200 ppm in assay [1] greater than 80%. The pest or weed control at 24 ppm in assay [2] was greater than 80%.
Turning to `O=C(NC1C[S+]([O-])C1)c1sc(-c2cccnc2)nc1Cl` (centres unmarked) [Compound 1.089], in assay [1], the pest or weed control at 200 ppm is greater than 80%.
In assay [3], `CC(C)(NC(=O)c1sc(-c2cccnc2)nc1Cl)C(=O)c1ccc(Cl)cc1` [Compound 1.131] returned a pest or weed control at 200 ppm greater than 80%.
Consider `O=C(NCC1CCS1)c1sc(-c2cccnc2)nc1Cl` (centres unmarked) [Compound 1.147], for which the pest or weed control at 200 ppm in assay [1] was greater than 80%. Besides, the pest or weed control at 24 ppm in assay [2] was greater than 80%.
With `CC#CC(C)(C)NC(=O)c1sc(-c2cccnc2)nc1Cl` [Compound 1.153], the pest or weed control at 200 ppm in assay [1] was greater than 80%.
With `CON1CCC(NC(=O)c2sc(-c3cccnc3)nc2Cl)CC1` [Compound 1.120], in assay [1], the pest or weed control at 200 ppm is greater than 80%. Further, in assay [2], the pest or weed control at 24 ppm is greater than 80%.
As to `C[S+]([O-])CCNC(=O)c1sc(-c2cccnc2)nc1Cl` (centres unmarked) [Compound 1.145], the pest or weed control at 200 ppm in assay [1] was greater than 80%. For the same molecule, the pest or weed control at 24 ppm in assay [2] was greater than 80%.
In assay [2], `CCN1OCC(NC(=O)c2sc(-c3cccnc3)nc2Cl)C1=O` (centres unmarked) [Compound 1.093] registered a pest or weed control at 24 ppm greater than 80%.
In assay [1], `O=C(NC1CCSC1)c1sc(-c2cccnc2)nc1Cl` (centres unmarked) [Compound 1.088] yielded a pest or weed control at 200 ppm greater than 80%. In assay [2], this molecule gave a pest or weed control at 24 ppm greater than 80%.
The molecule `O=C(NCC(F)(F)F)c1sc(-c2cccnc2)nc1Cl` [Compound 1.005] yielded a pest or weed control at 200 ppm in assay [1] greater than 80%. Moreover, the “Death rate (%) after 5 days” value in the assay on Aphis craccivora (3 ppm) is 0%; with Aphis craccivora (12.5 ppm), 0%; in the assay on Aphis craccivora (25 ppm), 30%; in the assay with Aphis craccivora (50 ppm), 90%. Moreover, the “insecticidal action on Aphis craccivora compared with the compound from the state of the art” value in the assay with Aphis craccivora (comparison with Comp. 39, especially at 25, 12.5 and 3 ppm) is “substantially better insecticidal action”.
In assay [3], `CC(C)(NC(=O)c1sc(-c2cccnc2)nc1Cl)C(=O)c1cccc(Br)c1` [Compound 1.132] had a pest or weed control at 200 ppm greater than 80%.
`COc1cc(-c2sc(-c3cccnc3)nc2Cl)nc(OC)n1` [Compound 1.160] registered a pest or weed control at 200 ppm in assay [3] greater than 80%.
Turning to `Clc1csc(C2C=CC=NC2c2sc(-c3cccnc3)nc2Cl)n1` (centres unmarked) [Compound 1.001], in assay [4], the activity result is given as “over 80%”. In assay [3], this molecule yielded a pest or weed control at 200 ppm greater than 80%.
Take `CC(C)(C)NC(=O)c1sc(-c2cccnc2)nc1Cl` [Compound 1.149]: the pest or weed control at 200 ppm in assay [1] is greater than 80%.
Turning to `C#CC(C)(C)NC(=O)c1sc(-c2cccnc2)nc1Cl` [Compound 1.152], in assay [1], the pest or weed control at 200 ppm is greater than 80%.
Molecule `O=C(NC1CSC1)c1sc(-c2cccnc2)nc1Cl` [Compound 1.007] showed a pest or weed control at 200 ppm in assay [1] greater than 80%. Besides, the pest or weed control at 24 ppm in assay [2] was greater than 80%.
Turning to `O=C(Nc1ccc(Oc2ccccc2)nc1)c1sc(-c2cccnc2)nc1Cl` [Compound 1.079], the pest or weed control at 200 ppm in assay [1] is greater than 80%.
For `O=C(NCC1CCCO1)c1sc(-c2cccnc2)nc1Cl` (centres unmarked) [Compound 1.026], the pest or weed control at 200 ppm in assay [1] is greater than 80%.
Turning to `O=C(NCCC1CS(=O)(=O)C1)c1sc(-c2cccnc2)nc1Cl` [Compound 1.094], the pest or weed control at 200 ppm in assay [1] was greater than 80%.
In turn, `CS(=O)(=O)c1ccc(CNC(=O)c2sc(-c3cccnc3)nc2Cl)cc1` [Compound 1.021] returned a pest or weed control at 200 ppm in assay [1] greater than 80%.
In assay [1], `COCC#CC(C)(C)NC(=O)c1sc(-c2cccnc2)nc1Cl` [Compound 1.130] came in with a pest or weed control at 200 ppm greater than 80%.
The molecule `O=C(NC1C[S+]([O-])C1)c1sc(-c2cccnc2)nc1Cl` (centres unmarked) [Compound 1.090] registered a pest or weed control at 24 ppm in assay [2] greater than 80%.
In the case of `COCC(C)(C#N)NC(=O)c1sc(-c2cccnc2)nc1Cl` (centres unmarked) [Compound 1.150], the pest or weed control at 200 ppm in assay [1] is greater than 80%.
Same read-out and setting: the result for `O=C(NC1CCC1)c1sc(-c2cccnc2)nc1Cl` [Compound 1.144] reads greater than 80%.
On to `O=C(NCc1ccc2c(c1)OCCO2)c1sc(-c2cccnc2)nc1Cl` [Compound 1.038], for which the pest or weed control at 200 ppm in assay [1] is greater than 80%.
In assay [3], `COC(=O)c1ccc(NC(=O)c2sc(-c3cccnc3)nc2Cl)nc1` [Compound 1.138] came in with a pest or weed control at 200 ppm greater than 80%.
On to `COC(c1ccc(Cl)cc1Cl)C(C)NC(=O)c1sc(-c2cccnc2)nc1Cl` (centres unmarked) [Compound 1.156], for which, in assay [5], the activity result is reported as “over 80%”. This molecule showed a pest or weed control at 200 ppm in assay [3] greater than 80%.
Molecule `CSCC(C)(C)NC(=O)c1sc(-c2cccnc2)nc1Cl` [Compound 1.086] yielded a pest or weed control at 200 ppm in assay [1] greater than 80%. The molecule further gave a pest or weed control at 24 ppm in assay [2] greater than 80%.
For the molecule `CC(=O)NCCNC(=O)c1sc(-c2cccnc2)nc1Cl` [Compound 1.039], the pest or weed control at 200 ppm in assay [1] was greater than 80%.
`Cc1cc(NC(=O)c2sc(-c3cccnc3)nc2Cl)n(C)n1` [Compound 1.069] gave a pest or weed control at 200 ppm in assay [1] greater than 80%.
Turning to `O=C(Nc1cccc2ncccc12)c1sc(-c2cccnc2)nc1Cl` [Compound 1.053], the pest or weed control at 200 ppm in assay [1] is greater than 80%.
With `CCCCNC(=O)c1sc(-c2cccnc2)nc1Cl` [Compound 1.142], in assay [1], the pest or weed control at 200 ppm was greater than 80%.
Turning to `C[C@@H](NC(=O)c1sc(-c2cccnc2)nc1Cl)C(F)(F)F` [Compound 1.100], the pest or weed control at 200 ppm in assay [1] is greater than 80%.
As for `CN(Cc1ccc(Cl)nc1)C(=O)c1sc(-c2cccnc2)nc1Cl` [Compound 1.124], the pest or weed control at 200 ppm in assay [3] is greater than 80%.
Take `O=C(NC1CS(=O)(=O)C1)c1sc(-c2cccnc2)nc1Cl` [Compound 1.085]: the pest or weed control at 200 ppm in assay [1] is greater than 80%.
